From patent US20240327393A1 (SIRONAX LTD., priority 2021, published 2024)

System: HT-1080 (ATCC, CCL-121) cells
Experiment: HT-1080 cell viability assay with ferroptosis inducer RSL3 (Cell Titer-Glo)
Assay type: cell-based
Settings: Homo sapiens; HT-1080 cells treated with RSL3; 3-fold, 10-point dilution, 1.1 μM highest concentration; Table 2; read-out: EC50 (nM), ferroptosis inhibitory activity
How it was run: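 HT-1080 cells (6000 per well) were cultured overnight at 37 °C, then co-treated with RSL3 and compound in a 3-fold, 10-point series topping at 1.1 μM. Viability was read by CellTiter-Glo luminescence and normalized to untreated controls. EC50 came from a sigmoidal non-linear regression fit.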

SMILES | EC50 [nM]
CC1CCN(c2ccc(Nc3ccc4c(c3)c(N)nn4C)cc2)CC1 [Compound 352, 1-methyl-N5-(4-(4-methylpiperidin-1-yl)phenyl)-1H-indazole-3,5-diamine] | 0.1 to 100
CC1CCN(c2ccc(Nc3ccc4c(c3)c(C(=O)O)cn4C)cc2)CC1 [Compound 353, 1-methyl-5-((4-(4-methylpiperidin-1-yl)phenyl)amino)-1H-indole-3-carboxylic acid] | 0.1 to 100
COCCn1c(=O)n(C)c2cc(Nc3ccc(N4CCC(C(F)(F)F)CC4)cc3)ccc21 [Compound 354, 1-(2-methoxyethyl)-3-methyl-5-((4-(4-(trifluoromethyl)piperidin-1-yl)phenyl)amino)-1,3-dihydro-2H-benzo[d]imidazol-2-one] | 0.1 to 100
CN(C)CCn1c(=O)n(C)c2cc(Nc3ccc(N4CCC(C(F)(F)F)CC4)cc3)ccc21 [Compound 355, 1-(2-(dimethylamino)ethyl)-3-methyl-5-((4-(4-(trifluoromethyl)piperidin-1-yl)phenyl)amino)-1,3-dihydro-2H-benzo[d]imidazol-2-one] | 0.1 to 100
CC(=O)Nc1nn(C)c2ccc(Nc3ccc(N4CCC(C)CC4)cc3)cc12 [Compound 356, N-(1-methyl-5-((4-(4-methylpiperidin-1-yl)phenyl)amino)-1H-indazol-3-yl) acetamide] | 0.1 to 100
FC(F)(F)C1CCN(c2ccc(Nc3ccc4nc[nH]c4c3)cc2)CC1 [Compound 357, N-(4-(4-(trifluoromethyl)piperidin-1-yl)phenyl)-1H-benzo[d]imidazol-6-amine] | 0.1 to 100
FC(F)(F)C1CCN(c2ccc(Nc3ccc4cnoc4c3)cc2)CC1 [Compound 358, N-(4-(4-(trifluoromethyl)piperidin-1-yl)phenyl)benzo[d]isoxazol-6-amine] | 0.1 to 100
FC(F)(F)C1CCN(c2ccc(Nc3ccc4ocnc4c3)cc2)CC1 [Compound 359, N-(4-(4-(trifluoromethyl)piperidin-1-yl)phenyl)benzo[d]oxazol-5-amine] | 0.1 to 100
FC(F)(F)C1CCN(c2ccc(Nc3ccc4ncoc4c3)cc2)CC1 [Compound 360, N-(4-(4-(trifluoromethyl)piperidin-1-yl)phenyl)benzo[d]oxazol-6-amine] | 0.1 to 100
CCN(CCC(=O)OC)c1ccc(Nc2ccc3c(c2)n(C)c(=O)n3C)cc1 [Compound 361, methyl 3-((4-((1,3-dimethyl-2-oxo-2,3-dihydro-1H-benzo[d]imidazol-5-yl)amino)phenyl)(ethyl)amino)propanoate] | 100 to 1000
Cn1c(=O)n(C)c2cc(Nc3ccc(N4CCC(C(F)(F)F)CC4)nc3)ccc21 [Compound 362, 1,3-dimethyl-5-((6-(4-(trifluoromethyl)piperidin-1-yl)pyridin-3-yl)amino)-1,3-dihydro-2H-benzo[d]imidazol-2-one] | 0.1 to 100
Cn1c(=O)[nH]c2cc(Nc3ccc(N4CCC(C(F)(F)F)CC4)cc3)ccc21 [Compound 363, 1-methyl-5-((4-(4-(trifluoromethyl)piperidin-1-yl)phenyl)amino)-1,3-dihydro-2H-benzo[d]imidazol-2-one] | 0.1 to 100
Cn1ncc2cc(Nc3ccc(N4CCC(C(F)(F)F)CC4)cc3)ccc21 [Compound 364, 1-methyl-N-(4-(4-(trifluoromethyl)piperidin-1-yl)phenyl)-1H-indazol] | 0.1 to 100
CCNC(=O)c1cn(C)c2ccc(Nc3ccc(N4CCC(C)CC4)cc3)cc12 [Compound 365, N-ethyl-1-methyl-5-((4-(4-methylpiperidin-1-yl)phenyl)amino)-1H-indole-3-carboxamide] | 0.1 to 100
FC(F)(F)C1CCN(c2ccc(Nc3ccc4cn[nH]c4c3)cc2)CC1 [Compound 366, N-(4-(4-(trifluoromethyl)piperidin-1-yl)phenyl)-1H-indazol-6-amine] | 0.1 to 100
Cn1c(=O)n(CCN2CCCC2=O)c2ccc(Nc3ccc(N4CCC(C(F)(F)F)CC4)cc3)cc21 [Compound 367, 3-methyl-1-(2-(2-oxopyrrolidin-1-yl)ethyl)-5-((4-(4-(trifluoromethyl)piperidin-1-yl)phenyl)amino)-1,3-dihydro-2H-benzo[d]imidazol-2-one] | 0.1 to 100
CC1CCCCN1c1ccc(Nc2ccc3c(c2)n(C)c(=O)n3C)cc1 (stereo not drawn) [Compound 368, 1,3-dimethyl-5-((4-(2-methylpiperidin-1-yl)phenyl)amino)-1,3-dihydro-2H-benzo[d]imidazol-2-one] | 0.1 to 100
COCCOCCN(C)c1ccc(Nc2ccc3c(c2)n(C)c(=O)n3C)cc1 [Compound 369, 5-((4-((2-(2-methoxyethoxy)ethyl)(methyl)amino)phenyl)amino)-1,3-dimethyl-1,3-dihydro-2H-benzo[d]imidazol-2-one] | 100 to 1000

SMILES | EC50 [nM]
Cn1c(N)nc2cc(Nc3ccc(N4CCC(C(F)(F)F)CC4)cc3)ccc21 [Compound 370, 1-methyl-N^5-(4-(4-(trifluoromethyl)piperidin-1-yl)phenyl)-1H-benzo[d]imidazole-2,5-diamine] | 0.1 to 100
Cc1cc(Nc2ccc3c(c2)n(C)c(=O)n3C)cnc1N1CCC(C(F)(F)F)CC1 [Compound 371, 1,3-dimethyl-5-((5-methyl-6-(4-(trifluoromethyl)piperidin-1-yl)pyridin-3-yl)amino)-1,3-dihydro-2H-benzo[d]imidazol-2-one] | 0.1 to 100
COc1cc(Nc2ccc3c(c2)n(C)c(=O)n3C)cnc1N1CCC(C(F)(F)F)CC1 [Compound 372, 5-((5-methoxy-6-(4-(trifluoromethyl)piperidin-1-yl)pyridin-3-yl)amino)-1,3-dimethyl-1,3-dihydro-2H-benzo[d]imidazol-2-one] | 0.1 to 100
Cc1nc(N2CCC(C(F)(F)F)CC2)ccc1Nc1ccc2c(c1)n(C)c(=O)n2C [Compound 373, 1,3-dimethyl-5-((2-methyl-6-(4-(trifluoromethyl)piperidin-1-yl)pyridin-3-yl)amino)-1,3-dihydro-2H-benzo[d]imidazol-2-one] | 0.1 to 100
Cn1c(=O)n(C)c2cc(Nc3ccc(N4CCC(C(F)(F)F)CC4)cc3C#N)ccc21 [Compound 374, 2-((1,3-dimethyl-2-oxo-2,3-dihydro-1H-benzo[d]imidazol-5-yl)amino)-5-(4-(trifluoromethyl)piperidin-1-yl)benzonitrile] | 0.1 to 100
COc1cc(N2CCC(C(F)(F)F)CC2)ccc1Nc1ccc2c(c1)n(C)c(=O)n2C [Compound 375, 5-((2-methoxy-4-(4-(trifluoromethyl)piperidin-1-yl)phenyl)amino)-1,3-dimethyl-1,3-dihydro-2H-benzo[d]imidazol-2-one] | 0.1 to 100
CC1CCN(c2ncc(Nc3ccc4c(c3)n(C)c(=O)n4C)cn2)CC1 [Compound 376, 1,3-dimethyl-5-((2-(4-methylpiperidin-1-yl)pyrimidin-5-yl)amino)-1,3-dihydro-2H-benzo[d]imidazol-2-one] | 0.1 to 100
COc1nc(N2CCC(C(F)(F)F)CC2)ccc1Nc1ccc2c(c1)n(C)c(=O)n2C [Compound 377, 5-((2-methoxy-6-(4-(trifluoromethyl)piperidin-1-yl)pyridin-3-yl)amino)-1,3-dimethyl-1,3-dihydro-2H-benzo[d]imidazol-2-one] | 0.1 to 100
Cn1c(=O)n(C)c2cc(Nc3cnc(N4CCC(C(F)(F)F)CC4)c(F)c3)ccc21 [Compound 378, 5-((5-fluoro-6-(4-(trifluoromethyl)piperidin-1-yl)pyridin-3-yl)amino)-1,3-dimethyl-1,3-dihydro-2H-benzo[d]imidazol-2-one] | 0.1 to 100
Cc1cc(N2CCC(C(F)(F)F)CC2)ncc1Nc1ccc2c(c1)n(C)c(=O)n2C [Compound 379, 1,3-dimethyl-5-((4-methyl-6-(4-(trifluoromethyl)piperidin-1-yl)pyridin-3-yl)amino)-1,3-dihydro-2H-benzo[d]imidazol-2-one] | 0.1 to 100
COc1cc(N2CCC(C(F)(F)F)CC2)ncc1Nc1ccc2c(c1)n(C)c(=O)n2C [Compound 380, 5-((4-methoxy-6-(4-(trifluoromethyl)piperidin-1-yl)pyridin-3-yl)amino)-1,3-dimethyl-1,3-dihydro-2H-benzo[d]imidazol-2-one] | 0.1 to 100
Cn1c(=O)n(C)c2cc(Nc3ccccc3)ccc21 [Compound 382, 1,3-dimethyl-5-(phenylamino)-1,3-dihydro-2H-benzo[d]imidazol-2-one] | 0.1 to 100
Cn1cc(C(N)=O)c2cc(Nc3ccc(N4CCC(C(F)(F)F)CC4)cc3)ccc21 [Compound 383, 1-methyl-5-((4-(4-(trifluoromethyl)piperidin-1-yl)phenyl)amino)-1H-indole-3-carboxamide] | 0.1 to 100
COC1(C(F)(F)F)CCN(c2ccc(Nc3ccc4c(c3)n(C)c(=O)n4C)cc2)CC1 [Compound 384, 5-((4-(4-methoxy-4-(trifluoromethyl)piperidin-1-yl)phenyl)amino)-1,3-dimethyl-1,3-dihydro-2H-benzo[d]imidazol-2-one] | 0.1 to 100
Cn1c(=O)n(C)c2cc(Nc3ccc(N4CCC(CF)CC4)cc3)ccc21 [Compound 385, 5-((4-(4-(fluoromethyl)piperidin-1-yl)phenyl)amino)-1,3-dimethyl-1,3-dihydro-2H-benzo[d]imidazol-2-one] | 0.1 to 100
COC1(C(F)(F)F)CCN(c2ccc(Nc3ccc4c(c3)oc(=O)n4C)cc2)CC1 [Compound 386, 6-((4-(4-methoxy-4-(trifluoromethyl)piperidin-1-yl)phenyl)amino)-3-methylbenzo[d]oxazol-2(3H)-one] | 0.1 to 100
Cn1c(=O)oc2cc(Nc3ccc(N4CCC(CF)CC4)cc3)ccc21 [Compound 387, 6-((4-(4-(fluoromethyl)piperidin-1-yl)phenyl)amino)-3-methylbenzo[d]oxazol-2(3H)-one] | 0.1 to 100
Cn1c(=O)oc2ccc(Nc3cnc(N4CCC(C(F)(F)F)CC4)c(F)c3)cc21 [Compound 388, 5-((5-fluoro-6-(4-(trifluoromethyl)piperidin-1-yl)pyridin-3-yl)amino)-3-methylbenzo[d]oxazol-2(3H)-one] | 0.1 to 100
